Data set [1] is described as follows: Cell toxicity / % cell viability by flow cytometry (cells in total events v. untreated). The class given is cell-based, Human. The note with it: human, HeLa cells; for viability at 1 min, 20 µM: FIG. 29I, shuttle 20 μM, 1 minute; for viability at 1 h, 3.5 µM: antibody 0.5 μM, shuttle 3.5 μM, read-out: Cell viability (%) (± St. Dev.; n = 3), FIG. 19B. (A flow cytometer gives signals particle by particle.)
Excerpt: (§1) The fluorescence of GFP was quantified using flow cytometry (Accuri C6, Becton, Dickinson and Company (BD)). Untreated cells were used to establish a baseline in order to quantify the increased fluorescence due to the internalization of the fluorescent protein in treated cells. The percentage of cells with a fluorescence signal above the maximum fluorescence of untreated cells, “mean %” or “Pos cells (%)”, is used to identify positive fluorescent cells. “Relative fluorescence intensity (FL1-A)” corresponds to the mean of all fluorescence intensities from each cell with a fluorescent signal after fluorescent protein delivery with the shuttle agent. Also, the events scanned by flow cytometry corresponding to cells (size and granularity) were analyzed. The cellular toxicity (% cell viability) was monitored comparing the percentage of cells in the total events scanned of treated cells comparatively to untreated cells.

Test in data set [2]: as above
Excerpt: as §1
The note with it: human, THP-1 cells. It is filed as cell-based, human.

[3] abbreviates: Cell viability (%) (±St. Dev.; n = 3), FIG. 29F, read-out: Cell viability (%) (±St. Dev.; n = 3), FIG. 29F.
The mark [4] stands for this setting: Cell viability (%) (±St. Dev.; n = 3), HeLa, Protocol B, GFP-NLS 5 μM, read-out: Cell viability (%) (±St. Dev.; n = 3).

Like-named read-outs stand apart in the source and are kept apart here. Where a SMILES comes first, the peptide text is derived from it. Bridges are numbered along the chain shown (N, C = ends). Roman numbers before positions name the chains, in order. Where no end group is shown, it is not given here.

Regarding “RRLSYSRRRFWEAKLAKALAKALAKHLAKALAKALKACEA [SynB3-KALA]”, the viability at 10 s, 50 µM in data set [1] (setting [3]) was found to be 91.1 ± 0.82%.

For the compound “GLFEALLELLESLWELLLEAYARAAARQARA [JST-PTD4]”, the viability at 10 s, 50 µM in data set [1] (Cell viability (%) (±St. Dev.; n = 3), FIG. 29E, read-out: Cell viability (%) (±St. Dev.; n = 3), FIG. 29E) was 98.9 ± 0.57%.

In the case of “HHHHHHHHHHHHKWKLFKKIGAVLKVLTTGYARAAARQARA [12His-CM18-PTD4]”, the viability at 1 min, 20 µM in data set [1] (setting [4]) came to 33.4 ± 4.3%.

As for “HHHHHHKWKLFKKIGAVLKVLTTGYARAAARQARAHHHHHH [His-CM18-PTD4-His]”, the viability at 1 min, 10 µM in data set [1] (Cell viability (%) (±St. Dev.; n = 3), FIG. 29G, HeLa, Protocol B, shuttle 10 μM, GFP-NLS 5 μM, incubation 1 min, read-out: Cell viability (%) (±St. Dev.; n = 3), FIG. 29G) came out at 68.1 ± 2.7%. For the same compound, in data set [1] (Cell viability (%) (±St. Dev.; n = 3), FIG. 29G, HeLa, Protocol B, shuttle 10 μM, GFP-NLS 5 μM, incubation 2 min, read-out: Cell viability (%) (±St. Dev.; n = 3), FIG. 29G), the viability at 2 min, 10 µM is 61.6 ± 3.2%. In data set [1] (Cell viability (%) (±St. Dev.; n = 3), FIG. 29G, HeLa, Protocol B, shuttle 10 μM, GFP-NLS 5 μM, incubation 5 min, read-out: Cell viability (%) (±St. Dev.; n = 3), FIG. 29G), the viability at 5 min, 10 µM amounted to 41.2 ± 4.4%. Besides, in data set [1] (setting [4]), the viability at 1 min, 20 µM was 78.6 ± 1.1%.

With “WEAKLAKALAKALAKHLAKALAKALKACEA [KALA, reference compound]”, the viability at 10 s, 50 µM in data set [1] turned out to be 84 ± 0.7%.

As for “MHHHHHHKWKLFKKIGAVLKVLTTGYGRKKRRQRRRC [Met-His-CM18-TAT-Cys]”, the viability at 10 s, 50 µM in data set [1] (Cell viability (%) (±St. Dev.; n = 3), FIG. 29E, HeLa, Protocol B, shuttle 50 μM, GFP-NLS 5 μM, 10 seconds, read-out: Cell viability (%) (±St. Dev.; n = 3), FIG. 29E) is 41.4 ± 3.91%.

“I: KWKLFKKIGAVLKVLTTGRQIKIWFQNRRMKWKKC / II: KWKLFKKIGAVLKVLTTGRQIKIWFQNRRMKWKKC (disulfide I:35-II:35) [dCM18-Penetratin-Cys]”: the viability at 1 h, 3.5 µM in data set [1] (HeLa) amounted to 74 ± 9%.

In data set [1], `CC(C)C[C@H](NC(=O)[C@H](CC(C)C)NC(=O)[C@H](CCCCN)NC(=O)[C@H](CCCCN)NC(=O)[C@H](CC(C)C)NC(=O)[C@H](CC(C)C)NC(=O)[C@H](CCCCN)NC(=O)[C@H](CCCCN)NC(=O)[C@H](CC(C)C)NC(=O)[C@H](CC(C)C)NC(=O)[C@H](CS)NC(=O)[C@H](Cc1c[nH]cn1)NC(=O)[C@H](Cc1c[nH]cn1)NC(=O)[C@H](Cc1c[nH]cn1)NC(=O)[C@H](Cc1c[nH]cn1)NC(=O)[C@H](Cc1c[nH]cn1)NC(=O)[C@@H](N)Cc1c[nH]cn1)C(=O)N[C@@H](CCCCN)C(=O)N[C@@H](CCCCN)C(=O)N[C@@H](CS)C(=O)N[C@@H](Cc1ccc(O)cc1)C(=O)N[C@@H](C)C(=O)N[C@@H](CCCNC(=N)N)C(=O)N[C@@H](C)C(=O)N[C@@H](C)C(=O)N[C@@H](C)C(=O)N[C@@H](CCCNC(=N)N)C(=O)N[C@@H](CCC(N)=O)C(=O)N[C@@H](C)C(=O)N[C@@H](CCCNC(=N)N)C(=O)N[C@@H](C)C(=O)O` [His-C(LLKK)3C-PTD4] (H-HHHHHHCLLKKLLKKLLKKCYARAAARQARA-OH) returned a viability at 10 s, 50 µM of 95 ± 2.7%; a viability at 1 min, 10 µM of 99.5 ± 2.7%; a viability at 2 min, 10 µM of 94.3 ± 3.2%; a viability at 5 min, 10 µM of 80.8 ± 4.4%. In data set [2], the viability at 15 s, 1 µM was 85.2 ± 2.8%; the viability at 0.5 min, 1 µM stood at 86 ± 2%; the viability at 1 min, 1 µM is 86.9 ± 3.8%; the viability at 2 min, 1 µM is 79.6 ± 2.8%. Further, in data set [2], the viability at 24 h, 0.8 µM is 97.2 ± 2.2% and the viability at 72 h, 0.8 µM amounted to 76.6 ± 3.4%.

For “LIRLWSHLIHIWFQNRRLKWKKKYARAAARQARA [EB1-PTD4]”, in data set [1], the viability at 10 s, 50 µM worked out at 39 ± 5.6%; the viability at 1 min, 10 µM is 61.7 ± 2.7%; the viability at 2 min, 10 µM stood at 56.6 ± 3.2%; the viability at 5 min, 10 µM is 55.8 ± 4.4%.

In the case of YARAAARQARA [PTD4, reference compound], the viability at 10 s, 50 µM in data set [1] (Cell viability (%) (±St. Dev.; n = 3), FIG. 29D, read-out: Cell viability (%) (±St. Dev.; n = 3), FIG. 29D) was 94 ± 4.5%.

The compound “HHHHHHYARAAARQARA [His-PTD4, reference compound]” had a viability at 10 s, 50 µM in data set [1] of 96.5 ± 0.28%.

On to `CC[C@H](C)[C@H](NC(=O)[C@H](CCCCN)NC(=O)[C@H](CCCCN)NC(=O)[C@H](Cc1ccccc1)NC(=O)[C@H](CC(C)C)NC(=O)[C@H](CCCCN)NC(=O)[C@H](Cc1c[nH]c2ccccc12)NC(=O)[C@H](CCCCN)NC(=O)[C@H](Cc1c[nH]cn1)NC(=O)[C@H](C)NC(=O)[C@H](Cc1c[nH]cn1)NC(=O)[C@H](Cc1c[nH]cn1)NC(=O)[C@H](C)NC(=O)[C@H](Cc1c[nH]cn1)NC(=O)[C@H](Cc1c[nH]cn1)NC(=O)[C@H](C)NC(=O)[C@@H](N)Cc1c[nH]cn1)C(=O)NCC(=O)N[C@@H](C)C(=O)N[C@H](C(=O)N[C@@H](CC(C)C)C(=O)N[C@@H](CCCCN)C(=O)N[C@H](C(=O)N[C@@H](CC(C)C)C(=O)N[C@H](C(=O)N[C@H](C(=O)NCC(=O)N[C@@H](Cc1ccc(O)cc1)C(=O)N[C@@H](C)C(=O)N[C@@H](CCCNC(=N)N)C(=O)N[C@@H](C)C(=O)N[C@@H](C)C(=O)N[C@@H](C)C(=O)N[C@@H](CCCNC(=N)N)C(=O)N[C@@H](CCC(N)=O)C(=O)N[C@@H](C)C(=O)N[C@@H](CCCNC(=N)N)C(=O)N[C@@H](C)C(=O)O)[C@@H](C)O)[C@@H](C)O)C(C)C)C(C)C` [3HA-CM18-PTD4], for which, in data set [1] (setting [4]), the viability at 1 min, 20 µM amounted to 43.6 ± 2.8%.

Consider `N=C(N)NCCC[C@H](NC(=O)CNC(=O)[C@@H](N)Cc1ccc(O)cc1)C(=O)N[C@@H](CCCCN)C(=O)N[C@@H](CCCCN)C(=O)N[C@@H](CCCNC(=N)N)C(=O)N[C@@H](CCCNC(=N)N)C(=O)N[C@@H](CCC(N)=O)C(=O)N[C@@H](CCCNC(=N)N)C(=O)N[C@@H](CCCNC(=N)N)C(=O)N[C@@H](CCCNC(=N)N)C(=O)N[C@@H](CS)C(=O)O` [TAT-Cys, reference compound], for which the viability at 10 s, 50 µM in data set [1] (HeLa, Protocol B, peptide 50 μM, GFP-NLS 5 μM, 10 seconds, read-out: Cell viability (%) (±St. Dev.; n = 3), FIG. 29D) came to 94.6 ± 0.44%.

Take “HHHKWKLFKKIGAVLKVLTTGYARAAARQARA [3His-CM18-PTD4]”: the viability at 1 min, 20 µM in data set [1] (setting [4]) is 39.2 ± 3.3%.

With “RRRRRRRRRWEAKLAKALAKALAKHLAKALAKALKACEA [9Arg-KALA]”, in data set [1] (setting [3]), the viability at 10 s, 50 µM came out at 62.8 ± 5.11%.

Take “KWKLFKKIGAVLKVLTTGRQIKIWFQNRRMKWKKC [CM18-Penetratin-Cys]”: the viability at 1 h, 3.5 µM in data set [1] (HeLa) came to 73 ± 9.5%.

With “KWKLFKKIGAVLKVLTTGHHHHHHYARAAARQARA [CM18-His-PTD4]”, in data set [1] (setting [4]), the viability at 1 min, 20 µM worked out at 57.7 ± 4.2%.

“HHHHHHKKALLALALHHLAHLALHLALALKKAYARAAARQARA [His-LAH4-PTD4]”: the viability at 10 s, 50 µM in data set [1] (HeLa, Protocol B, shuttle 50 μM, GFP-NLS 5 μM, 10 seconds, read-out: Cell viability (%) (±St. Dev.; n = 3), FIG. 29A) is 98 ± 1.5%.

As for `CC(C)C[C@H](NC(=O)[C@H](CC(C)C)NC(=O)[C@H](CCCCN)NC(=O)[C@H](CCCCN)NC(=O)[C@H](CC(C)C)NC(=O)[C@H](CC(C)C)NC(=O)[C@H](CCCCN)NC(=O)[C@H](CCCCN)NC(=O)[C@H](CC(C)C)NC(=O)[C@H](CC(C)C)NC(=O)[C@@H](N)CS)C(=O)N[C@@H](CCCCN)C(=O)N[C@@H](CCCCN)C(=O)N[C@@H](CS)C(=O)O` [C(LLKK)3C, reference compound] (H-CLLKKLLKKLLKKC-OH), in data set [1], the viability at 10 s, 50 µM worked out at 61.8 ± 0.1%.

For the compound “HHHAHHHKWKLFKKIGAVLKVLTTGYARAAARQARA [HA-CM18-PTD4]”, the viability at 1 min, 20 µM in data set [1] (setting [4]) turned out to be 68.3 ± 4.1%.

Consider `CC[C@H](C)[C@H](NC(=O)[C@@H](NC(=O)[C@H](Cc1ccccc1)NC(=O)[C@@H](N)CCCCN)[C@@H](C)O)C(=O)N[C@H](C(=O)N[C@@H](Cc1ccccc1)C(=O)N1CCC[C@H]1C(=O)N[C@@H](Cc1c[nH]cn1)C(=O)N[C@@H](CC(N)=O)C(=O)N[C@@H](CCC(N)=O)C(=O)N[C@@H](CCCCN)C(=O)NCC(=O)N[C@@H](CC(N)=O)C(=O)N[C@@H](Cc1c[nH]c2ccccc12)C(=O)N[C@@H](CCCCN)C(=O)N[C@@H](CC(N)=O)C(=O)N[C@H](C(=O)N1CCC[C@H]1C(=O)N[C@@H](CO)C(=O)N[C@@H](CC(N)=O)C(=O)N[C@@H](Cc1ccc(O)cc1)C(=O)N[C@@H](Cc1c[nH]cn1)C(=O)N[C@@H](Cc1ccc(O)cc1)C(=O)N[C@@H](CS)C(=O)N1CCC[C@H]1C(=O)N[C@@H](Cc1ccc(O)cc1)C(=O)N[C@@H](C)C(=O)N[C@@H](CCCNC(=N)N)C(=O)N[C@@H](C)C(=O)N[C@@H](C)C(=O)N[C@@H](C)C(=O)N[C@@H](CCCNC(=N)N)C(=O)N[C@@H](CCC(N)=O)C(=O)N[C@@H](C)C(=O)N[C@@H](CCCNC(=N)N)C(=O)N[C@@H](C)C(=O)O)C(C)C)C(C)C` [VSVG-PTD4], for which, in data set [1] (HeLa, Protocol B, shuttle 50 μM, GFP-NLS 5 μM, 10 seconds, read-out: Cell viability (%) (±St. Dev.; n = 3), FIG. 29E), the viability at 10 s, 50 µM was 100%.

In the case of “KWKLFKKIGAVLKVLTTG [CM18, reference compound]”, in data set [1] (Cell viability (%) (±St. Dev.; n = 3), FIG. 29D, HeLa, Protocol B, peptide 50 μM, GFP-NLS 5 μM, 10 seconds, read-out: Cell viability (%) (±St. Dev.; n = 3), FIG. 29D), the viability at 10 s, 50 µM came out at 95 ± 1.2%.

Broadly, the viability is a per cent measure of how many cells are alive, often set against a control.

Values taken from patent US12060387B2, “Polypeptide-based shuttle agents for improving the transduction efficiency of polypeptide cargos to the cytosol of target eukaryotic cells, uses thereof, methods and kits relating to same” (priority 2015, dated 2024).
